In US20230226096A1 (Orna Therapeutics, Inc., priority 2020, published 2023):
Entries after “also recorded” stand apart in the source; their conditions may differ.

Assays:
[1] = test system: splenic immune cells; assay: Cre circular RNA LNPs in Cre reporter (Ai9) mice: tdTomato+ splenic immune cells; format: in vivo; details: 0.5 mg/kg RNA intravenously, 48 hr
Description: Circular RNAs encoding Cre recombinase (Cre) are encapsulated into lipid nanoparticles as previously described. Female, 6-8 week old B6.Cg-Gt(ROSA)26Sortm9(CAG-tdTomato)Hze/J (Ai9) mice were dosed with lipid nanoparticles at 0.5 mg/kg RNA intravenously. Fluorescent tdTomato protein was transcribed and translated in Ai9 mice upon Cre recombination, meaning circular RNAs have been delivered to and translated in tdTomato+ cells. After 48 hr, mice were euthanized and the spleens were harvested, processed into a single cell suspension, and stained with various fluorophore-conjugated antibodies for immunophenotyping via flow cytometry.
Ai9 mice (B6.Cg-Gt(ROSA)26Sortm9(CAG-tdTomato)Hze/J, female, 6-8 weeks, n=3 per group) were injected i.v. with 0.5 mg/kg Cre oRNA LNPs or PBS. Ai9 mice transcribe and translate the fluorescent reporter tdTomato upon Cre recombination; meaning cells which are tdTomato+ have successfully been transfected with Cre oRNA.

[2] = In vivo analysis: FLuc oRNA LNPs, whole body and ex vivo IVIS flux in mice; set-up: species or system CD-1 or c57BL/6J mice; details: 0.5 mg/kg RNA intravenously
Description: Female CD-1 or female c57BL/6J mice ranging from 22-25 g were dosed at 0.5 mg/kg RNA intravenously. Six hours after injection, mice were injected intraperitoneally with 200 μL of D-luciferin at 15 mg/mL concentration. 5 minutes after injection, mice were anesthetized using isoflurane, and placed inside the IVIS Spectrum In Vivo Imaging System (Perkin Elmer) with dorsal side up. Post 10 minutes injection, mice were scanned for luminescence. Mice were euthanized and organs were extracted within 25 minutes of luciferin injection to scan for luminescence in liver, spleen, kidneys, lungs, and heart. Images (FIGS. 33A-B, 34A-B, 35A-B) were analyzed using Living Images (Perkin Elmer) software. Regions of interest were drawn to obtain flux and average radiance and analyzed for biodistribution of protein expression (FIG. 32A-B).

[3] = test system: primary human T cells; assay: FLuc oRNA LNP transfection of primary human activated T cells with or without ApoE3; format: cell-based; details: 200 ng RNA/well, 24-hour incubation, 4 independent donors
Description: Primary human T cells from independent donors were stimulated with aCD3/aCD28 and allowed to proliferate for 6 days in the presence of human serum and IL-2. Then, 100,000 cells were plated in a 96 well plate and LNPs containing oRNA coding for Firefly Luciferase (FLuc) were added to the cells at 200 ng RNA/well with or without Apolipoprotein E3 (ApoE3). After 24-hour incubation, luminescence was quantified using the Bright-Glo Luciferase Assay System (Promega) according to manufacturer's instructions and background luminescence from cells not treated with LNPs was subtracted. […] (See Example 70 for LNP formulation procedure, e.g., for 10a-27 (5.7A), 10a-26 (5.7A), 10a-27 (4.5D), and 10a-26 (4.5D) LNPs.)

[4] = test system: 1C1C7 cells; assay: GLuc luminescence and functional stability by IRES in 1C1C7 cells; details: 100 ng circularization reaction per 20,000 cells
[5] = test system: HEK293 cells; assay: GLuc luminescence by IRES in HEK293 cells; details: 100 ng circularization reaction per 20,000 cells

Molecule: CCCCCCCCCOC(=O)CCCCCCCN(CCO)CCCCCCCC(=O)OC(CCCCCCCC)CCCCCCCC [Lipid 15 from Table 10b]
- proportion of splenic immune cells expressing tdTomato (transfection) [1]: effective at delivering circular RNAs to many splenic immune cell subsets in mice
- spleen to liver ratios [2]: maintaining the desired spleen to liver ratios

Molecule: CCCCCCCCC(CCCCCC)C(=O)OCCCCCCN(CCCCCCOC(=O)C(CCCCCC)CCCCCCCC)CCCn1ccnc1C (stereo not shown) [Lipid 27 from Table 10a, ((3-(2-methyl-1H-imidazol-1-yl)propyl)azanediyl)bis(hexane-6,1-diyl) bis(2-hexyldecanoate)]
- proportion of splenic immune cells expressing tdTomato (transfection) ([1]; 0.5 mg/kg): significantly higher myeloid and T cell transfection compared with Lipid 93-S14; also recorded: effective at delivering circular RNAs to many splenic immune cell subsets in mice
- proportion of splenic immune cells expressing tdTomato (transfection) ([1]; listed as Lipid 10a-27, 0.5 mg/kg): transfect significantly more splenic immune cells than those made with Lipid 10a-46
- Firefly luminescence [3]: generally produced higher luminescence than those containing Lipid 26 from Table 10a (10a-26)

B1: Salivirus A SZ-1 (nucleic acid)
DNA: TCTGTCCTCACCCCATCTTCCCTTCTTTCCTGCACCGTTACGCTTACTCGCATGTGCATTGAGTGGTGCACGTGCTTGAACAAACAGCTACACTCACATGGGGGCGGGTTTTCCCGCCCTGCGGCCTCTCGCGAGGCCCACCCCTCCCCTTCCTCCCATAACTACAGTGCTTTGGTAGGTAAGCATCCTGATCCCCCGCGGAAGCTGCTCACGTGGCAACTGTGGGGACCCAGACAGGTTATCAAAGGCACCCGGTCTTTCCGCCTTCAGGAGTATCCCTGCTAGTGAATTCTAGTAGGGCTCTGCTTGGTGCCAACCTCCCCCAAATGCGCGCTGCGGGAGTGCTCTTCCCCAACTCACCCTAGTATCCTCTCATGTGTGTGCTTGGTCAGCATATCTGAGACGATGTTCCGCTGTCCCAGACCAGTCCAGTAATGGACGGGCCAGTGTGCGTAGTCGTCTTCCGGCTTGTCCGGCGCATGTTTGGTGAACCGGTGGGGTAAGGTTGGTGTGCCCAACGCCCGTACTTTGGTGATACCTCAAGACCACCCAGGAATGCCAGGGAGGTACCCCGCTTCACAGCGGGATCTGACCCTGGGCTAATTGTCTACGGTGGTTCTTCTTGCTTCCACTTCTTTCTACTGTTCATG
- luminescence at 24 hours [4]: high luminescence

B2: Crohivirus B IRES: "Crohivirus B (CrVB) IRES", one of the selected IRES sequences, SEQ ID NOs: 348-389 (nucleic acid)
DNA: GTATAAGAGACAGGTGTTTGCCTTGTCTTCGGACTGGCATCTTGGGACCAACCCCCCTTTTCCCCAGCCATGGGTTAAATGGCAATAAAGGACGTAACAACTTTGTAACCATTAAGCTTTGTAATTTTGTAACCACTAAGCTTTGTGCACATAATGTAACCATCAAGCTTGTTAGTCCCAGCAGGAGGTTTGCATGCTTGTAGCCGAAATGGGGCTCGACCCCCCATAGTAGGATACTTGATTTTGCATTCCATTGTGGACCTGCAAACTCTACACATAGAGGCTTTGTCTTGCATCTAAACACCTGAGTACAGTGTGTACCTAGACCCTATAGTACGGGAGGACCGTTTGTTTCCTCAATAACCCTACATAATAGGCTAGGTGGGCATGCCCAATTTGCAAGATCCCAGACTGGGGGTCGGTCTGGGCAGGGTTAGATCCCTGTTAGCTACTGCCTGATAGGGTGGTGCTCAACCATGTGTAGTTTAAATTGAGCTGTTCATATACC
modifications: Crohivirus B
- luminescence at 24 hours [5]: highest luminescence
